Earlier results in patent US20080066744A1, “PROCESS FOR PRODUCING METERED DOSE INHALER FORMULATIONS” (Schering Corporation, priority 2002, published 2008).
Read-outs that look alike come from different tables or passages of the source.

Row | Compound | solubility (in ethanol) | solubility (in water) | solubility (in acetone) | solubility (in chloroform) | solubility (in isopropanol) | solubility (in methanol) | solubility (in tetrahydrofuran)
1 | (alpha) ^1[(tert-Butylamino)methyl]4-hydroxy-m-xylene-(alpha),(alpha)′-diol sulfate (2:1)(salt) [Albuterol sulfate] | slightly soluble | soluble | – | – | – | – | –
2 | C[C@@H]1C[C@H]2[C@@H]3CCC4=CC(=O)C=C[C@]4(C)[C@@]3(Cl)[C@@H](O)C[C@]2(C)[C@@]1(OC(=O)c1ccco1)C(=O)CCl [Mometasone furoate, 9,21-Dichloro-11(beta), 17-dihydroxy-16(alpha)-methylpregna-1,4-diene-3,20-dione 17-(2 furoate)] | slightly soluble | practically insoluble | soluble | soluble | slightly soluble | slightly soluble | freely soluble
